The term IC50 denotes the concentration that gives 50% inhibition.

SMILES strings stand for the structures. Like-named read-outs stand apart in the source and are kept apart here.

In test [1] the test system is human multiple myeloma cells RPMI 8226. As to the kind of experiment: MTS in vitro proliferation assay, RPMI 8226. The class given is cell-based. As to conditions: 72 hours, read-out: IC50(μM) RPMI8226.
Protocol: (§1) The cells in the logarithmic growth phase were trypsinized, counted, and seeded at a density of 1×10^4 cells/well in a 96-well plate at 100 μL per well in a 37° C. incubator containing 5% CO2 overnight. For the culture, six concentration gradients were set for each compound, and three sets of duplicate wells were set for each concentration. After the addition, the cells were cultured for 72 hours, and 20 μL of MTS was added. After incubating for 2 hours at 37° C., the absorbance at 490 nm (L1) was measured with a SpectraMAX 340 microplate reader.
For test [2], the system named is human mantle cell lymphoma cells Mino. As to the kind of experiment: MTS in vitro proliferation assay, Mino. The class given is cell-based. The conditions noted are these: 72 hours.
Protocol: as §1
Test [3] has as its system human lymphoma cells Romas. As to the kind of experiment: MTS in vitro proliferation assay, Romas. It is filed as cell-based. As to conditions: 72 hours.
Protocol: as §1
Test [4] relates to human mantle cell lymphoma cells Jeko-1. As to the kind of experiment: MTS in vitro proliferation assay, Jeko-1. It is filed as cell-based. The conditions noted are these: 72 hours.
Protocol: as §1
Test [5] has as its system human acute monocytic leukemia cells MV-4-11. The test can be described thus: MTS in vitro proliferation assay, MV-4-11. It is filed as cell-based. The conditions noted are these: MV4-11, 72 hours.
Protocol: as §1
The test system of test [6] is Human lung cancer cell A549. The test can be described thus: MTS in vitro proliferation assay, A549. It is filed as cell-based. The conditions noted are these: 72 hours, average of three experiments.
Protocol: as §1
The subject of test [7] is human prostate cancer cell LnCAP. As to the kind of experiment: MTS in vitro proliferation assay, LnCAP. The class given is cell-based. As to conditions: 72 hours, average of three experiments.
Protocol: as §1
The test system of test [8] is human colon cancer cell HCT116. As to the kind of experiment: MTS in vitro proliferation assay, HCT116. The class given is cell-based. As to conditions: HCT-116, 72 hours, average of three experiments.
Protocol: as §1
The test system of test [9] is human ovarian cancer cell OVCAR-8. As to the kind of experiment: MTS in vitro proliferation assay, OVCAR-8. The class given is cell-based. The conditions noted are these: 72 hours, average of three experiments.
Protocol: as §1
Test [10] has as its system human colon cancer cell Colo205. The test can be described thus: MTS in vitro proliferation assay, Colo205. The conditions noted are these: COLO 205, 72 hours, average of three experiments. It is filed as cell-based.
Protocol: as §1
The target of test [11] is T1, Chk1 protein kinase (Homo sapiens, UniProt O14757).
T1 sequence (O14757 1-476): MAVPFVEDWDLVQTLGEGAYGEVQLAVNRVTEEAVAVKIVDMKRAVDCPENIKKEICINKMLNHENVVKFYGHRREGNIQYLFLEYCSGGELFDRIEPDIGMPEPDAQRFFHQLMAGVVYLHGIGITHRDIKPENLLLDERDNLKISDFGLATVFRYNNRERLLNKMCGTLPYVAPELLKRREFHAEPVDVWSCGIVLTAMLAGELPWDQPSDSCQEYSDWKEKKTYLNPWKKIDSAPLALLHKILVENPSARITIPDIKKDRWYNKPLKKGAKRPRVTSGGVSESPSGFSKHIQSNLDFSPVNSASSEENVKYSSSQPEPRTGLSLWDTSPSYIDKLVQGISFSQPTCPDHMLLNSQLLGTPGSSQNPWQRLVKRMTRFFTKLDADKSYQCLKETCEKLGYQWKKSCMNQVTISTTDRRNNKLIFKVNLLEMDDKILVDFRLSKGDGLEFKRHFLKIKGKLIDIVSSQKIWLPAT
The test can be described thus: Chk1 enzyme inhibitory activity, ADP-Glo kit. The class given is biochemical. As to the method: With the Saurosporine as a positive control, the Chk1 enzyme inhibitory activity (IC50) was evaluated using the ADP-Glo kit. […] The phosphorylation process consumes ATP. After the reaction, ADP-Glo™ Reagent consumes the remaining ATP. The ADP produced during the reaction can be transformed by ADP-Glo Detection Reagent. For ATP, ATP acts as a substrate for the Ultra-Glo™ luciferase catalytic reaction, producing an optical signal. The test compound was dissolved in DMSO to make a 10 mM stock solution and diluted to 12 different concentrations in a certain ratio for testing. […] Incubate for 1 h, stop the reaction by adding 5 μL of ADP-Glo™ Reagent, and incubate for 1 h at 37° C. 10 μL of ADP-Glo Detection Reagent was added, incubated at 37° C. for 30 min, and three parallel wells were set for each sample. […] was measured by luminescence fluorescence microplate reader, and data were calculated using GraphPad Prism 5 software to calculate IC50 values.
(In general: ADP-Glo turns the ADP formed in a reaction into a luminescent signal.)

Test [12] deals with human gastric cancer cell BGC-823. The test can be described thus: MTS in vitro proliferation assay, BGC-823. It is filed as cell-based. As to conditions: 72 hours, average of three experiments.
Protocol: as §1
The test system of test [13] is human breast cancer cells MCF-7. The test can be described thus: cells. As to conditions: MCF7, 72 h, read-out: IC50(μM) MCF-7.
Protocol: as §1
The mark [14] stands for this setting: Table 2 >10 μM or <1 μM, read-out: Chk1 IC50, bound with unit.
Setting [15] is: Table 2 left column pair, numeric cells, read-out: Chk1 (IC50).

In the case of `CNc1nc(Nc2cnc(C#N)c(O[C@H]3CCCNC3)c2)ncc1-c1cnn(C)c1` [Compound 36, (S)-N^4-methyl-5-(1-methyl-1H-pyrazol-4-yl)-N^2-(2-cyano-3-(piperidin-3-yloxy)pyridin-5-yl)-2,4-diaminopyrimidine], the IC50 turned out to be 2.49 µM in test [1]; 0.956 µM in test [2]; 0.649 µM in [3]; 0.548 µM in test [4]; 0.072 µM in test [5]; 5.74 µM in test [6]. The IC50 in test [7] is 4.89 µM; in test [8] it was 2.55 µM; in [9], 4.18 µM; in test [10] it was 2.18 µM.

`CNc1nc(Nc2cc(OC3CCNCC3)no2)ncc1-c1cnn(C)c1` [Compound 2, N^4-Methyl-5-(1-methyl-1H-pyrazol-4-yl)-N^2-(3-(piperidin-4-yloxy)isoxazol-5-yl)-2,4-diaminopyrimidine]: the IC50 in test [11] (setting [14]) was above 10 µM.

Consider `CNc1nc(Nc2cn(C)c(OC3CCNCC3)n2)ncc1-c1cnn(C)c1` [Compound 3, N^4-Methyl-5-(1-methyl-1H-pyrazol-4-yl)-N^2-(1-methyl-2-(piperidin-4-yloxy)imidazol-4-yl)-2,4-diaminopyrimidine], for which, in [11] (setting [14]), the IC50 is above 10 µM.

For the compound `COc1nc(Nc2cnc(C#N)c(OCC3CCNCC3)c2)ncc1-c1cnn(C)c1` [Compound 18, 4-methoxy-5-(1-methyl-1H-pyrazol-4-yl)-N-(2-cyano-3-(piperidin-4-methyl)oxypyridin-5-yl)-2-aminopyrimidine], the IC50 in [11] (setting [15]) is 0.0018 µM; in test [5], 0.036 µM; in test [6] it was 3.17 µM; in test [7], 7 µM; in test [12], 7.11 µM; in [8], 1.77 µM. Besides, the IC50 turned out to be 2.14 µM in test [9] and 1.01 µM in test [10].

Turning to `CNc1nc(Nc2cnc(C#N)c(O[C@H](C)CN(C)C)c2)ncc1-c1cnn(C)c1` [Compound 41, (R)-N^4-methyl-5-(1-methyl-1H-pyrazol-4-yl)-N^2-(2-cyano-3-(1-dimethylaminopropyl-2-oxy)pyridin-5-yl)-2,4-diaminopyrimidine], the IC50 came out at 0.945 µM in [1]; 0.473 µM in test [2]; 0.119 µM in [3]; 0.094 µM in [4]; 0.034 µM in test [5]; 2.17 µM in test [6]. The IC50 turned out to be 2.62 µM in test [7]; 5.17 µM in test [12]; 1.31 µM in test [8]; 1.19 µM in test [9]; 0.993 µM in test [10]; 1.01 µM in test [13].

Consider `CNc1nc(Nc2cnc(C#N)c(O[C@@H]3CCCNC3)c2)ncc1-c1cnn(C)c1` [Compound 35, (R)-N^4-methyl-5-(1-methyl-1H-pyrazol-4-yl)-N^2-(2-cyano-3-(piperidin-3-yloxy)pyridin-5-yl)-2,4-diaminopyrimidine], for which the IC50 in test [1] came out at 1.27 µM; in test [2] it was 0.647 µM; in test [3] it was 0.356 µM; in test [4] it was 0.339 µM; in test [5] it was 0.053 µM; in test [6] it was 2.16 µM. The IC50 was found to be 2.17 µM in test [7]; 4.81 µM in test [12]; 0.98 µM in [8]; 0.789 µM in test [9]; 0.663 µM in test [10]; 1.01 µM in [13].

Consider `COc1nc(Nc2cnc(C#N)c(OCC3CCNCC3)c2)ncc1C(F)(F)F` [Compound 46, 4-methoxy-5-trifluoromethyl-N-(2-cyano-3-(piperidin-4-methyl)oxypyridin-5-yl)-2-aminopyrimidine], for which the IC50 in test [11] (setting [14]) was below 1 µM.

For `CNc1nc(Nc2cnc(C#N)c(OC3CCCNC3)c2)ncc1-c1cnn(C)c1` (stereo not shown) [Compound 32, N^4-Methyl-5-(1-methyl-1H-pyrazol-4-yl)-N^2-(2-cyano-3-(piperidin-3-yloxy)pyridin-5-yl)-2,4-diaminopyrimidine], the IC50 in test [1] was determined as 8.18 µM; in test [2] it was 0.859 µM; in [3], 0.789 µM; in test [4], 0.189 µM; in test [5], 0.064 µM; in test [6] it was 5.17 µM. In addition, the IC50 came to 6 µM in test [7], 7.64 µM in [12] and 4.18 µM in test [8].

In the case of `CNc1nc(Nc2cnc(OC3CCNCC3)s2)ncc1-c1cnn(C)c1` [Compound 6, N^4-Methyl-5-(1-methyl-1H-pyrazol-4-yl)-N^2-(2-(piperidin-4-yloxy)thiazol-5-yl)-2,4-diaminopyrimidine], in [11] (setting [14]), the IC50 is above 10 µM.

For `CNc1nc(Nc2cnc(C#N)c(O[C@@H](C)CN(C)C)c2)ncc1-c1cnn(C)c1` [Compound 42, (S)-N^4-methyl-5-(1-methyl-1H-pyrazol-4-yl)-N^2-(2-cyano-3-(1-dimethylaminopropyl-2-oxy)pyridin-5-yl)-2,4-diaminopyrimidine], the IC50 in [1] was 0.814 µM; in [2], 0.227 µM; in test [3], 0.218 µM; in [4], 0.137 µM; in [5], 0.092 µM; in test [6], above 10 µM. In addition, the IC50 in test [7] turned out to be 5.74 µM; in test [8] it was 4.19 µM; in [9] it was 2.17 µM; in [10] it was 1.03 µM.

In the case of `N#Cc1ncc(Nc2ncc(C(F)(F)F)cn2)cc1OC1CCCNC1` (stereo not shown) [Compound 45, 5-trifluoromethyl-N-(2-cyano-3-(piperidin-3-oxy)pyridin-5-yl)-2-aminopyrimidine], the IC50 in test [11] (setting [14]) was below 1 µM.

In the case of `CNc1nc(Nc2cc(OC3CCNCC3)ns2)ncc1-c1cnn(C)c1` [Compound 4, N^4-Methyl-5-(1-methyl-1H-pyrazol-4-yl)-N^2-(2-(piperidin-4-yloxy)isothiazol-5-yl)-2,4-diaminopyrimidine], in [11] (setting [14]), the IC50 was above 10 µM.

For `CNc1nc(NC2CN=C(OC3CCNCC3)O2)ncc1-c1cnn(C)c1` (stereo not shown) [Compound 5, N^4-Methyl-5-(1-methyl-1H-pyrazol-4-yl)-N^2-(2-(piperidin-4-yloxy)-4,5-2H-oxazolin-5-yl)-2,4-diaminopyrimidine], in [11] (setting [14]), the IC50 was above 10 µM.

As to `COc1nc(Nc2cnc(C#N)c(OCC3CCNCC3)c2)ncc1-c1cccc(F)c1` [Compound 17, 4-methoxy-5-(3-fluorophenyl)-N-(2-cyano-3-(piperidin-4-methyl)oxypyridin-5-yl)-2-aminopyrimidine], the IC50 worked out at 0.0088 µM in test [11] (setting [15]); 3.29 µM in test [1]; 0.495 µM in test [2]; 0.348 µM in test [3]; 0.117 µM in test [4]; 0.05 µM in test [5]. Besides, the IC50 in [6] was 4.24 µM; in [7] it was above 10 µM; in test [12], above 10 µM; in [8] it was 1.9 µM; in test [9], 0.22 µM; in test [10], 0.878 µM.

In the case of `CNc1nc(Nc2cc(OC3CCNCC3)n(C)n2)ncc1-c1cnn(C)c1` [Compound 1, N^4-methyl-5-(1-methyl-1H-pyrazol-4-yl)-N^2-(1-methyl-5-(piperidin-4-yloxy)pyrazol-3-yl)-2,4-diaminopyrimidine], in test [11] (setting [14]), the IC50 was above 10 µM.

As for `CNc1nc(Nc2cnc(C#N)c(O[C@@H]3CCCNC3)c2)ncc1C(F)(F)F` [Compound 47, (R)—N^4-methyl-5-trifluoromethyl-N^2-(2-cyano-3-(piperidin-3-oxy)pyridin-5-yl)-2,4-diaminopyrimidine], the IC50 in test [11] (setting [14]) is below 1 µM.

For the origin of these results see patent US11591325B2, “2-polysubstituted aromatic ring-pyrimidine derivatives, preparation and medical application thereof” (ZHEJIANG UNIVERSITY, priority 2016, dated 2023).
